Tests used:
Experiment in all cases: relative viability (nuclei count vs DMSO), 5 days (fraction); higher = more cells survive
[1] = compound: Nc1nc(Nc2ccc3c(c2)CC[C@@H](N2CCCC2)CC3)nn1-c1cc2c(nn1)-c1ccccc1CCC2 [Bemcentinib] + N=C(N)NC(=N)NCCc1ccccc1 [Phenformin] (partner 250 µM)
Outline: (§1)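 Dosing by pin tool came one day after lung cancer cell lines were seeded in 1536-well plates, using either one drug or a fixed anchor-drug dose plus five library-drug doses (not always all listed) in √10 steps. After 5 days, nuclei were counted on 4× images. Relative viability is treated-well nuclei count divided by vehicle-well nuclei count, and values are medians of duplicate plates.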

[2] = compound: CC1=CC=C(C=C1)C(=O)CN2C3=C(CCCC3)SC2=N [Pifithrin_alpha] + COc1cccc2cc(-c3nc([C@H]4CC[C@H](C(=O)O)CC4)n4ncnc(N)c34)[nH]c12 [OSI-027] (partner 0.5 µM)
Outline: as §1

[3] = compound: CNC(=O)c1ccccc1Sc1ccc2c(/C=C/c3ccccn3)n[nH]c2c1 [Axitinib] + NC(=O)Nc1cc(-c2cccc(F)c2)sc1C(=O)N[C@H]1CCCNC1 [AZD7762] (partner 0.2 µM)
Outline: as §1

[4] = compound: Nc1nc(Nc2ccc3c(c2)CC[C@@H](N2CCCC2)CC3)nn1-c1cc2c(nn1)-c1ccccc1CCC2 [Bemcentinib] + COc1cccc2cc(-c3nc([C@H]4CC[C@H](C(=O)O)CC4)n4ncnc(N)c34)[nH]c12 [OSI-027] (partner 0.5 µM)
Outline: as §1

Cell Line: A-427
- relative viability ([1]; first compound 0.04 µM): 0.305
- relative viability ([1]; first compound 0.1265 µM): 0.308
- relative viability ([1]; first compound 0.4 µM): 0.332
- relative viability ([1]; first compound 1.265 µM): 0.337
- relative viability ([1]; first compound 4 µM): 0.258
- relative viability ([2]; first compound 1 µM): 0.398
- relative viability ([2]; first compound 3.162 µM): 0.416
- relative viability ([2]; first compound 10 µM): 0.445
- relative viability ([2]; first compound 31.62 µM): 0.445
- relative viability ([2]; first compound 100 µM): 0.601
- relative viability ([3]; first compound 0.005 µM): 0.805
- relative viability ([3]; first compound 0.01581 µM): 0.77
- relative viability ([3]; first compound 0.05 µM): 0.807
- relative viability ([3]; first compound 0.1581 µM): 0.718
- relative viability ([3]; first compound 0.5 µM): 0.887
- relative viability ([4]; first compound 0.04 µM): 0.455
- relative viability ([4]; first compound 0.1265 µM): 0.511
- relative viability ([4]; first compound 0.4 µM): 0.492
- relative viability ([4]; first compound 1.265 µM): 0.427
- relative viability ([4]; first compound 4 µM): 0.472

Cell Line: LXF-289
- relative viability ([1]; first compound 0.04 µM): 0.523
- relative viability ([1]; first compound 0.1265 µM): 0.533
- relative viability ([1]; first compound 0.4 µM): 0.534
- relative viability ([1]; first compound 1.265 µM): 0.532
- relative viability ([1]; first compound 4 µM): 0.54
- relative viability ([2]; first compound 1 µM): 0.53
- relative viability ([2]; first compound 3.162 µM): 0.766
- relative viability ([2]; first compound 10 µM): 0.737
- relative viability ([2]; first compound 31.62 µM): 0.68
- relative viability ([2]; first compound 100 µM): 0.729
- relative viability ([3]; first compound 0.005 µM): 1.16
- relative viability ([3]; first compound 0.01581 µM): 1.06
- relative viability ([3]; first compound 0.05 µM): 1.11
- relative viability ([3]; first compound 0.1581 µM): 1.06
- relative viability ([3]; first compound 0.5 µM): 1.18
- relative viability ([4]; first compound 0.04 µM): 0.744
- relative viability ([4]; first compound 0.1265 µM): 0.837
- relative viability ([4]; first compound 0.4 µM): 0.782
- relative viability ([4]; first compound 1.265 µM): 0.801
- relative viability ([4]; first compound 4 µM): 0.819

Cell Line: NCI-H1355
- relative viability ([1]; first compound 0.04 µM): 0.442
- relative viability ([1]; first compound 0.1265 µM): 0.444
- relative viability ([1]; first compound 0.4 µM): 0.483
- relative viability ([1]; first compound 1.265 µM): 0.42
- relative viability ([1]; first compound 4 µM): 0.484
- relative viability ([2]; first compound 1 µM): 0.336
- relative viability ([2]; first compound 3.162 µM): 0.329
- relative viability ([2]; first compound 10 µM): 0.323
- relative viability ([2]; first compound 31.62 µM): 0.307
- relative viability ([2]; first compound 100 µM): 0.309
- relative viability ([3]; first compound 0.005 µM): 0.799
- relative viability ([3]; first compound 0.01581 µM): 0.833
- relative viability ([3]; first compound 0.05 µM): 0.845
- relative viability ([3]; first compound 0.1581 µM): 0.769
- relative viability ([3]; first compound 0.5 µM): 0.735
- relative viability ([4]; first compound 0.04 µM): 0.379
- relative viability ([4]; first compound 0.1265 µM): 0.412
- relative viability ([4]; first compound 0.4 µM): 0.46
- relative viability ([4]; first compound 1.265 µM): 0.399
- relative viability ([4]; first compound 4 µM): 0.44

Cell Line: NCI-H1437
- relative viability ([1]; first compound 0.04 µM): 0.305
- relative viability ([1]; first compound 0.1265 µM): 0.33
- relative viability ([1]; first compound 0.4 µM): 0.375
- relative viability ([1]; first compound 1.265 µM): 0.3
- relative viability ([1]; first compound 4 µM): 0.296
- relative viability ([2]; first compound 1 µM): 1.06
- relative viability ([2]; first compound 3.162 µM): 0.903
- relative viability ([2]; first compound 10 µM): 0.905
- relative viability ([2]; first compound 31.62 µM): 0.65
- relative viability ([2]; first compound 100 µM): 0.41
- relative viability ([3]; first compound 0.005 µM): 1.14
- relative viability ([3]; first compound 0.01581 µM): 1.13
- relative viability ([3]; first compound 0.05 µM): 1.07
- relative viability ([3]; first compound 0.1581 µM): 1.08
- relative viability ([3]; first compound 0.5 µM): 1.03
- relative viability ([4]; first compound 0.04 µM): 0.884
- relative viability ([4]; first compound 0.1265 µM): 0.845
- relative viability ([4]; first compound 0.4 µM): 0.995
- relative viability ([4]; first compound 1.265 µM): 0.961
- relative viability ([4]; first compound 4 µM): 0.915

Cell Line: HCC-366
- relative viability ([1]; first compound 0.04 µM): 0.604
- relative viability ([1]; first compound 0.1265 µM): 0.63
- relative viability ([1]; first compound 0.4 µM): 0.638
- relative viability ([1]; first compound 1.265 µM): 0.653
- relative viability ([1]; first compound 4 µM): 0.587
- relative viability ([2]; first compound 1 µM): 0.787
- relative viability ([2]; first compound 3.162 µM): 0.605
- relative viability ([2]; first compound 10 µM): 0.538
- relative viability ([2]; first compound 100 µM): 0.48
- relative viability ([3]; first compound 0.005 µM): 0.307
- relative viability ([3]; first compound 0.01581 µM): 0.206
- relative viability ([3]; first compound 0.05 µM): 0.377
- relative viability ([3]; first compound 0.1581 µM): 0.337
- relative viability ([3]; first compound 0.5 µM): 0.405
- relative viability ([4]; first compound 0.04 µM): 0.803
- relative viability ([4]; first compound 0.1265 µM): 1.17
- relative viability ([4]; first compound 0.4 µM): 0.921
- relative viability ([4]; first compound 1.265 µM): 0.875
- relative viability ([4]; first compound 4 µM): 0.898

Cell Line: 201T
- relative viability ([1]; first compound 0.04 µM): 0.417
- relative viability ([1]; first compound 0.1265 µM): 0.504
- relative viability ([1]; first compound 0.4 µM): 0.48
- relative viability ([1]; first compound 1.265 µM): 0.454
- relative viability ([1]; first compound 4 µM): 0.455
- relative viability ([2]; first compound 1 µM): 0.453
- relative viability ([2]; first compound 3.162 µM): 0.542
- relative viability ([2]; first compound 10 µM): 0.524
- relative viability ([2]; first compound 31.62 µM): 0.439
- relative viability ([2]; first compound 100 µM): 0.467
- relative viability ([3]; first compound 0.005 µM): 0.626
- relative viability ([3]; first compound 0.01581 µM): 0.56
- relative viability ([3]; first compound 0.05 µM): 0.593
- relative viability ([3]; first compound 0.1581 µM): 0.539
- relative viability ([3]; first compound 0.5 µM): 0.59
- relative viability ([4]; first compound 0.04 µM): 0.599
- relative viability ([4]; first compound 0.1265 µM): 1.02
- relative viability ([4]; first compound 0.4 µM): 0.778
- relative viability ([4]; first compound 1.265 µM): 0.709
- relative viability ([4]; first compound 4 µM): 0.801

Cell Line: NCI-H1734
- relative viability ([1]; first compound 0.04 µM): 0.406
- relative viability ([1]; first compound 0.1265 µM): 0.384
- relative viability ([1]; first compound 0.4 µM): 0.42
- relative viability ([1]; first compound 1.265 µM): 0.434
- relative viability ([1]; first compound 4 µM): 0.372
- relative viability ([2]; first compound 1 µM): 0.58
- relative viability ([2]; first compound 3.162 µM): 0.633
- relative viability ([2]; first compound 10 µM): 0.585
- relative viability ([2]; first compound 31.62 µM): 0.482
- relative viability ([2]; first compound 100 µM): 0.491
- relative viability ([3]; first compound 0.005 µM): 0.64
- relative viability ([3]; first compound 0.01581 µM): 0.573
- relative viability ([3]; first compound 0.05 µM): 0.56
- relative viability ([3]; first compound 0.1581 µM): 0.579
- relative viability ([3]; first compound 0.5 µM): 0.668
- relative viability ([4]; first compound 0.04 µM): 0.643
- relative viability ([4]; first compound 0.1265 µM): 0.66
- relative viability ([4]; first compound 0.4 µM): 0.552
- relative viability ([4]; first compound 1.265 µM): 0.583
- relative viability ([4]; first compound 4 µM): 0.591

Cell Line: NCI-H1993
- relative viability ([1]; first compound 0.04 µM): 0.465
- relative viability ([1]; first compound 0.1265 µM): 0.501
- relative viability ([1]; first compound 0.4 µM): 0.528
- relative viability ([1]; first compound 1.265 µM): 0.505
- relative viability ([1]; first compound 4 µM): 0.487
- relative viability ([2]; first compound 1 µM): 0.509
- relative viability ([2]; first compound 3.162 µM): 0.537
- relative viability ([2]; first compound 10 µM): 0.571
- relative viability ([2]; first compound 31.62 µM): 0.65
- relative viability ([2]; first compound 100 µM): 0.59
- relative viability ([3]; first compound 0.005 µM): 0.819
- relative viability ([3]; first compound 0.01581 µM): 0.933
- relative viability ([3]; first compound 0.05 µM): 0.746
- relative viability ([3]; first compound 0.1581 µM): 0.883
- relative viability ([3]; first compound 0.5 µM): 0.818
- relative viability ([4]; first compound 0.04 µM): 0.592
- relative viability ([4]; first compound 0.1265 µM): 0.534
- relative viability ([4]; first compound 0.4 µM): 0.557
- relative viability ([4]; first compound 1.265 µM): 0.548
- relative viability ([4]; first compound 4 µM): 0.506
